Data taken from patent US5574008A, “Biologically active fragments of glucagon-like insulinotropic peptide” (Eli Lilly and Company, priority 1994, dated 1996).

System: fasted normal Sprague-Dawley rats
Assay: In vivo hyperglycemic clamp assay (glucose up-take assay)
Set-up: species or system rat
Conditions: 0.3 nmol/kg iv bolus at 60 min
From the text: In vivo Hyperglycemic Clamp Assay (Glucose Up-take Assay) Male Sprague-Dawley rats (Charles Rivers) weighing about 350 grams were allowed to acclimate to their surroundings for a week after which they were cannulated under isoflurane inhalation anesthetic. Two catheters were implanted into the jugular vein for infusions of glucose and GLP-1 fragment. Another catheter was implanted into the carotid artery for sampling blood. The catheters were exteriorized through the skin at the vertex of the head, filled with a glycerol/heparin solution (30 ml glycerol/10 ml heparin from a 1000 u/ml stock solution), and closed off with a one centimeter stainless steel plug. The rats were housed individually in wire mesh cages and were fed ad libitum on a standard rat chow diet. Each animal was given at least one week to recover from surgery before testing any GLP-1 fragments for biological activity. The rats were fasted overnight; on the morning of the experiment, sampling tubes were connected to the indwelling catheters, and the tubes were enclosed in a light weight stainless steel spring for protection. The rats were acclimated to their cages for 15 minutes. All experiments were carried out in conscious, free moving rats. A basal blood sample was taken for measurement of insulin and glucose levels at time zero on the timer. The rats were then given a bolus of 20% dextrose to raise plasma glucose to either 150 mg/dl (8.3 mM) or 200 mg/dl (11.2 mM). Plasma glucose levels were maintained at the chosen level by measuring plasma glucose levels approximately every 5 minutes and adjusting the calibrated variable infusion pump as needed to maintain the established blood glucose levels. Blood samples were collected at 45 and 60 minutes for the control period measurements. At 60 minutes into the clamp, 0.3 nmol/kg of the experimental GLP-1 fragment was injected via the jugular vein catheter and flushed with saline. […] The blood samples were centrifuged in a micro centrifuge to separate the plasma component. Plasma glucose was measured on a Beckman Glucose analyzer II using the glucose oxidase method. Plasma insulin was determined by standard radio immunoassay as per the manufacturer's directions (Diagnostic Products Corp.). The activity of the GLP-1 fragment was determined by the percentage change in glucose infusion rate and change in insulin secreted. These two parameters were compared to control rats that received only diluent. Note: This assay is based on reports that GLP-1 insulinotropic action is glucose dependent. The assay protocol eliminates variability due to falling glucose levels in other protocols using the "bolus" method. The hyperglycemic clamp involved administration of variable amounts of glucose (20% dextrose) to maintain glucose at a constant level of 8.3 or 11.2 mM in fasted normal Sprague-Dawley rats. The hyperglycemic clamp is maintained for 1 hour after which the GLP-1 fragment is injected as a bolus through the jugular vein. […] The glucose infusion rate (GIR) in the last 15 minutes of the control period and after the injection of the peptide is calculated. The activity of the peptide is determined by the increase in glucose infusion rate and change in insulin secreted after the injection of the peptide.

[1] = 150 mg/dl plasma glucose clamp, time 60 min
[2] = 150 mg/dl plasma glucose clamp, time 62 min
[3] = 150 mg/dl plasma glucose clamp, time 64 min
[4] = 150 mg/dl plasma glucose clamp, time 66 min
[5] = 150 mg/dl plasma glucose clamp, time 68 min
[6] = 150 mg/dl plasma glucose clamp, time 70 min
[7] = 150 mg/dl plasma glucose clamp, time 75 min
[8] = 150 mg/dl plasma glucose clamp, time 80 min
[9] = 150 mg/dl plasma glucose clamp, time 85 min
[10] = 150 mg/dl plasma glucose clamp, time 90 min
[11] = 150 mg/dl plasma glucose clamp, time 100 min
[12] = 150 mg/dl plasma glucose clamp, time 110 min
[13] = 150 mg/dl plasma glucose clamp, time 120 min
[14] = 150 mg/dl plasma glucose clamp, time 130 min
[15] = 150 mg/dl plasma glucose clamp, time 140 min
[16] = 150 mg/dl plasma glucose clamp, time 150 min
[17] = 200 mg/dl plasma glucose clamp, time 60 min
[18] = 200 mg/dl plasma glucose clamp, time 62 min
[19] = 200 mg/dl plasma glucose clamp, time 64 min
[20] = 200 mg/dl plasma glucose clamp, time 66 min
[21] = 200 mg/dl plasma glucose clamp, time 68 min
[22] = 200 mg/dl plasma glucose clamp, time 70 min
[23] = 200 mg/dl plasma glucose clamp, time 75 min
[24] = 200 mg/dl plasma glucose clamp, time 80 min
[25] = 200 mg/dl plasma glucose clamp, time 85 min
[26] = 200 mg/dl plasma glucose clamp, time 90 min
[27] = 200 mg/dl plasma glucose clamp, time 100 min
[28] = 200 mg/dl plasma glucose clamp, time 110 min
[29] = 200 mg/dl plasma glucose clamp, time 120 min
[30] = 200 mg/dl plasma glucose clamp, time 130 min
[31] = 200 mg/dl plasma glucose clamp, time 140 min
[32] = 200 mg/dl plasma glucose clamp, time 150 min

GLP-1(7-37)OH
% Change in GIR [1]: 11.15%
Plasma Insulin Change [1]: 1.140 ng/mL
% Change in GIR [2]: -0.20%
Plasma Insulin Change [2]: 7.233 ng/mL
% Change in GIR [3]: 11.15%
Plasma Insulin Change [3]: 1.464 ng/mL
% Change in GIR [4]: 1.66%
Plasma Insulin Change [4]: 0.324 ng/mL
% Change in GIR [5]: 5.64%
Plasma Insulin Change [5]: -0.016 ng/mL
% Change in GIR [6]: 19.95%
Plasma Insulin Change [6]: -0.375 ng/mL
% Change in GIR [7]: 71.90%
Plasma Insulin Change [7]: -0.465 ng/mL
% Change in GIR [8]: 92.63%
Plasma Insulin Change [8]: -0.357 ng/mL
% Change in GIR [9]: 61.76%
Plasma Insulin Change [9]: -0.020 ng/mL
% Change in GIR [10]: 14.74%
Plasma Insulin Change [10]: -0.181 ng/mL
% Change in GIR [11]: -26.22%
Plasma Insulin Change [11]: -0.358 ng/mL
% Change in GIR [12]: -38.57%
Plasma Insulin Change [12]: -0.174 ng/mL
% Change in GIR [13]: -48.67%
Plasma Insulin Change [13]: -0.326 ng/mL
% Change in GIR [14]: -54.82%
Plasma Insulin Change [14]: -0.578 ng/mL
% Change in GIR [15]: -58.43%
Plasma Insulin Change [15]: -0.367 ng/mL
% Change in GIR [16]: -63.58%
Plasma Insulin Change [16]: -0.465 ng/mL
% Change in GIR [17]: 20.449%
Plasma Insulin Change [17]: 1.887 ng/mL
% Change in GIR [18]: 25.050%
Plasma Insulin Change [18]: 11.101 ng/mL
% Change in GIR [19]: 23.583%
Plasma Insulin Change [19]: 4.219 ng/mL
% Change in GIR [20]: 15.374%
Plasma Insulin Change [20]: 3.246 ng/mL
% Change in GIR [21]: 19.465%
Plasma Insulin Change [21]: 1.359 ng/mL
% Change in GIR [22]: 50.305%
Plasma Insulin Change [22]: -0.208 ng/mL
% Change in GIR [23]: 71.461%
Plasma Insulin Change [23]: -0.692 ng/mL
% Change in GIR [24]: 88.390%
Plasma Insulin Change [24]: -0.456 ng/mL
% Change in GIR [25]: 86.482%
Plasma Insulin Change [25]: -0.177 ng/mL
% Change in GIR [26]: 55.677%
Plasma Insulin Change [26]: -0.250 ng/mL
% Change in GIR [27]: 11.304%
Plasma Insulin Change [27]: -0.301 ng/mL
% Change in GIR [28]: -12.411%
Plasma Insulin Change [28]: -0.222 ng/mL
% Change in GIR [29]: -7.123%
Plasma Insulin Change [29]: -0.405 ng/mL
% Change in GIR [30]: -17.745%
Plasma Insulin Change [30]: -0.590 ng/mL
% Change in GIR [31]: -15.311%
Plasma Insulin Change [31]: -0.289 ng/mL
% Change in GIR [32]: -21.279%
Plasma Insulin Change [32]: -0.280 ng/mL

GLP-1(R26)(9-36)NH2 [GLP-1(R26) (9-36)NH2]
% Change in GIR [17]: 19.020%
Plasma Insulin Change [17]: 1.692 ng/mL
% Change in GIR [18]: 2.128%
Plasma Insulin Change [18]: 0.693 ng/mL
% Change in GIR [19]: 3.752%
Plasma Insulin Change [19]: 0.025 ng/mL
% Change in GIR [20]: 11.602%
Plasma Insulin Change [20]: 0.204 ng/mL
% Change in GIR [21]: 29.976%
Plasma Insulin Change [21]: 0.063 ng/mL
% Change in GIR [22]: 37.819%
Plasma Insulin Change [22]: 0.185 ng/mL
% Change in GIR [23]: 50.568%
Plasma Insulin Change [23]: -0.125 ng/mL
% Change in GIR [24]: 42.526%
Plasma Insulin Change [24]: 0.134 ng/mL
% Change in GIR [25]: 16.548%
Plasma Insulin Change [25]: -0.550 ng/mL
% Change in GIR [26]: -6.165%
Plasma Insulin Change [26]: -0.336 ng/mL
% Change in GIR [27]: -18.164%
Plasma Insulin Change [27]: 0.027 ng/mL
% Change in GIR [28]: -35.351%
Plasma Insulin Change [28]: -0.100 ng/mL
% Change in GIR [29]: -48.404%
Plasma Insulin Change [29]: 0.399 ng/mL
